Experimental data taken from US8410107B2, “N-pyridin-3-yl or N-pyrazin-2-yl carboxamides” (Hoffmann-La Roche Inc., priority 2010, dated 2013).

Columns and labels:
ABCA1 protein = assay: Detection of upregulation of ABCA1 protein in cells (ApoA-I binding, high content image analysis); assay type: cell-based; conditions: THP-1 macrophage cells; for EC50: ABCA1 protein increasing efficacy; for % increase of ABCA1 at 3 μM: 24 hrs with compound
Method: The ability of compounds of the invention to increase the level of ABCA1 protein is determined in replicate cultures of THP-1 macrophage cells in 96-well microplates. Cells are plated at an initial density of 100,000 cells/well in 100 μl medium and differentiated to adherent macrophages with the addition of PMA (100 nM) for 68 hrs in 10% fetal bovine serum, 3 μl/L of b-mercaptoethanol, RPMI-1640 medium. Then, cells are incubated with RPMI-1640 medium containing 1% FCS, 25 μg/ml acetylated LDL, for 24 hours at 37°. Following incubation with acetylated LDL, cells are washed twice with 50 μl PBS and incubated with 100 μl of RPMI-1640 medium containing the compound of interest solubilized in DMSO for an additional 24 hrs. The final DMSO concentration in presence of cells is maintained at 0.5%. ApoA-I binding assay using High Content Image Analysis is initiated by replacing with fresh medium, RPMI without Phenol Red, 0.2% BSA containing AlexaFluor®647 labeled ApoA-I for 2 h/37° C./5% CO2. Then, cells are fixed with 4% Formaldehyde inPBS (15 min, RT). Following Nuclei are stained with Hoechst solution (3 μM PBS) and Cytoplasm with Cell Mask Blue (2 μg/ml PBS), 15 min, RT. Finally the stained cells are fixed with a second round of formaldehyde treatment. Fixed stained cells are washed and kept in PBS at 4° C. and can be read immediately until one month after preparation.
The Alexa Fluor 647-labeled Apolipoprotein A-I (20 nM) was prepared as follows: Human recombinant Apolipoprotein A-I (ApoA-I) was exchanged to a buffer of 0.02 M NaHCO3 at pH 8.2 on an NAP desalting column (GE Healthcare) and brought to a concentration to 40 μM (1.13 mg/ml) by adjustment with the same buffer. The ApoA-I was fluorescently labeled by incubation with Alexa Fluor carboxylic acid succimidyl ester. (Alexa Fluor 647, Invitrogen A-20006) at a 2:1 molar ratio (Alexa to ApoA-I) for 1 h under shaking at RT. The remaining unconjugated label was removed by buffer exchange to 0.02M NaHCO3 at pH 8.2.
Imaging and data collection were performed on an OPERA confocal microplate imaging reader using a 20× water immersion objective and UV360 or 405 laser to identify the cell nuclei and a 635 laser to identify the fluorescent ApoA-I. Eight fields of view are captured per well. Image capture and analysis was performed with the Acapella software. Background fluorescence detected in control wells without ApoA-I was subtracted.
Using XLfit3 program (ID Business Solutions Ltd. UK), the model 205 for Dose Response One Site is used to calculate the EC50 values. The compounds of the present invention increase the level of ABCA1 protein by more than 45% at a concentration of 3 μM. […] Even more preferably, the compounds of the present invention have EC50 values in a range of 0.1 μM to 3 μM.

human CB1 receptor = target: T1, human CB1 receptor (Homo sapiens, UniProt P21554); assay: CB1 receptor affinity ([3H]-CP-55,940 displacement, HEK cell membranes); assay type: binding; conditions: displacement of radioligand [3H]-CP-55,940
T1 construct: expressed in transfected cells; host or cells: human embryonic kidney (HEK) cells, Semliki Forest Virus system, membrane preparations
Method: (§1) The affinity of the compounds of the invention for cannabinoid receptors was determined using membrane preparations of human embryonic kidney (HEK) cells in which the human CB1 receptor is transiently transfected using a Semliki Forest Virus system in conjunction with [3H]-CP-55,940 as radioligand. After incubation of freshly prepared cell membrane preparation with the [^3H]-ligand, with or without addition of compounds of the invention, separation of bound and free ligand was performed by filtration over glass fiber filters. Radioactivity on the filter was measured by scintillation counting.
(§2) The ability of the compounds to displace the radioligand [^3H]-CP-55,940 was measured at a concentration of 10 μM and values provided as [% inhibition @ 10 μM] both for the CB1 and CB2 receptor assay, The lower % inhibition is, the lower the likelihood of side effects based on CB1 or CB2 receptor inhibition is.

human CB2 receptor = target: T2, human CB2 receptor (Homo sapiens, UniProt P34972); assay: CB2 receptor affinity ([3H]-CP-55,940 displacement, HEK cell membranes); assay type: binding; conditions: displacement of radioligand [3H]-CP-55,940
T2 construct: expressed in transfected cells; host or cells: human embryonic kidney (HEK) cells, Semliki Forest Virus system, membrane preparations
Method: as §1, with “cannabinoid CB2” for “cannabinoid”, “CB2” for “CB1”, “[^3H]-CP-55,940” for “[3H]-CP-55,940”
as §2

T2 sequence (P34972 whole entry): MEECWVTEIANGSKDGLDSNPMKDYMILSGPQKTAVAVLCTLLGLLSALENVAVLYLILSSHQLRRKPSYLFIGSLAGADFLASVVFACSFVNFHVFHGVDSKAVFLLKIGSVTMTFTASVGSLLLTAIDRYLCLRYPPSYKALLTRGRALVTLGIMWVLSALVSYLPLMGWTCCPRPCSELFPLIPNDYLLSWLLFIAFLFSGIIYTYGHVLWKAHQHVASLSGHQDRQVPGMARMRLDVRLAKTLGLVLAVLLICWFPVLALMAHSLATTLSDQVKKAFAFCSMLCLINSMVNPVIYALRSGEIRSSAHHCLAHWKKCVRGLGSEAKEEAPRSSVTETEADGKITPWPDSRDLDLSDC
T1 sequence (P21554 whole entry): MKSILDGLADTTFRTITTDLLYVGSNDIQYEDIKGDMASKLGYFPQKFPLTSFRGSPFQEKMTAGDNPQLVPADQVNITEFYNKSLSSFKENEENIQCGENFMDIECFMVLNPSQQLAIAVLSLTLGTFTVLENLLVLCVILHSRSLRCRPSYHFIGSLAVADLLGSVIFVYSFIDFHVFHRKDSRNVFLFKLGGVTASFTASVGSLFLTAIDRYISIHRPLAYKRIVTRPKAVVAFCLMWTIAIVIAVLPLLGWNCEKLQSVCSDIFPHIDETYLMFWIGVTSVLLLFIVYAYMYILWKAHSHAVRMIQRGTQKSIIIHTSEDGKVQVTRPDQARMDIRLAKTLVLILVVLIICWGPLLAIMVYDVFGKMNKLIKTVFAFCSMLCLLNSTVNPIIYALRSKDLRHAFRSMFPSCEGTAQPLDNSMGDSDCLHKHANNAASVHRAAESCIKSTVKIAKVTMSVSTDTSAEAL

Compound	inhibition at 10 µM (human CB1 receptor)	inhibition at 10 µM (human CB2 receptor)	EC50 (ABCA1 protein)	% increase of ABCA1 at 3 μM (ABCA1 protein)
O=C(Nc1cnc(OCC(F)(F)F)c(-c2ccc(Cl)cc2)c1)c1ccc(O)cn1 [Example 40, 5-hydroxy-pyridine-2-carboxylic acid[5-(4-chloro-phenyl)-6-(2,2,2-trifluoro-ethoxy)-pyridin-3-yl]-amide]	19%	-5%	3310 nM	
C[C@H](Oc1ncc(NC(=O)c2cccnn2)cc1-c1ccc(Cl)cc1)C(F)(F)F [Example 42, (S)-N-(5-(4-chlorophenyl)-6-(1,1,1-trifluoropropan-2-yloxy)pyridin-3-yl)pyridazine-3-carboxamide]	23%	6%	8540 nM	
C[C@H](Oc1ncc(NC(=O)c2cccnc2)cc1-c1ccc(Cl)cc1)C(F)(F)F [Example 43, (S)-N-(5-(4-chlorophenyl)-6-(1,1,1-trifluoropropan-2-yloxy)pyridin-3-yl)nicotinamide]	31%	6%	5950 nM	
O=C(Nc1cnc(OCC(F)(F)F)c(-c2ccc(F)c(Cl)c2)c1)c1cccnc1 [Example 45, N-(5-(3-chloro-4-fluorophenyl)-6-(2,2,2-trifluoroethoxy)pyridin-3-yl)nicotin-amide]	11%	13%	1030 nM	
O=C(Nc1cnc(OCC(F)(F)F)c(-c2ccc(Cl)cc2F)c1)c1cccnc1 [Example 46, N-(5-(4-chloro-2-fluorophenyl)-6-(2,2,2-trifluoroethoxy)pyridin-3-yl)nicotin-amide]	40%	-1%		>45% @ 3 μM
CCc1ccc(-c2cc(NC(=O)c3cccnc3)cnc2OCC(F)(F)F)cc1 [Example 47, N-(5-(4-ethylphenyl)-6-(2,2,2-trifluoroethoxy)pyridin-3-yl)nicotinamide]	34%	5%	1360 nM	
C[C@H](Oc1ncc(NC(=O)c2cccnc2)nc1-c1ccc(Cl)cc1)C(F)(F)F [Example 48, (S)-N-(6-(4-chlorophenyl)-5-(1,1,1-trifluoropropan-2-yloxy)pyrazin-2-yl)nicotinamide]	40%	-2%		>45% @ 3 μM
O=C(Nc1cnc(OCC(F)(F)F)c(-c2ccc(Cl)cc2)n1)c1cccnc1 [Example 49, N-(6-(4-chlorophenyl)-5-(2,2,2-trifluoroethoxy)pyrazin-2-yl)nicotinamide]	39%	-3%	300 nM	
O=C(Nc1cnc(OC2CCC2)c(-c2ccc(Cl)cc2)n1)c1cccnc1 [Example 50, N-(6-(4-chlorophenyl)-5-cyclobutoxypyrazin-2-yl)nicotinamide]	39%	-1%	1500 nM	
O=C(Nc1cnc(OC2CCC2)c(-c2ccc(Cl)cc2)n1)c1cncnc1 [Example 51, N-(6-(4-chlorophenyl)-5-cyclobutoxypyrazin-2-yl)pyrimidine-5-carboxamide]	48%	6%		>45% @ 3 μM
Cc1cc(-c2cc(NC(=O)c3cn(C)nc3C)cnc2OCC(F)(F)F)ccc1Cl [Example 58, N-(5-(4-chloro-3-methylphenyl)-6-(2,2,2-trifluoroethoxy)pyridin-3-yl)-1,3-dimethyl-1H-pyrazole-4-carboxamide]	3%	-13%	2200 nM	
Cc1cc(-c2cc(NC(=O)c3c(F)ccnc3F)cnc2OCC(F)(F)F)ccc1Cl [Example 59, N-(5-(4-chloro-3-methylphenyl)-6-(2,2,2-trifluoroethoxy)pyridin-3-yl)-2,4-difluoronicotinamide]	22%	18%	3900 nM	
O=C(Nc1cnc(OCC(F)(F)F)c(-c2ccc(Cl)cc2)c1)c1ccccc1O [Example 60, N-(5-(4-chlorophenyl)-6-(2,2,2-trifluoroethoxy)pyridin-3-yl)-2-hydroxy-benzamide]	38%	-2%		>45% @ 3 μM

The next lines start with results.

inhibition at 10 µM (human CB1 receptor)	inhibition at 10 µM (human CB2 receptor)	Compound	EC50 (ABCA1 protein)	% increase of ABCA1 at 3 μM (ABCA1 protein)
31%	8%	Cc1cncc(C(=O)Nc2cnc(OCC(F)(F)F)c(-c3ccc(Cl)cc3)c2)c1 [Example 41, N-(5-(4-chlorophenyl)-6-(2,2,2-trifluoroethoxy)pyridin-3-yl)-5-methylnicotin-amide]		>45% @ 3 μM
15%	14%	O=C(Nc1cnc(OCC(F)(F)F)c(-c2ccc(Cl)c(F)c2)c1)c1cccnc1 [Example 44, N-(5-(4-chloro-3-fluorophenyl)-6-(2,2,2-trifluoroethoxy)pyridin-3-yl)nicotin-amide]	1260 nM	
34%	6%	Cc1cc(-c2cc(NC(=O)c3cncnc3)cnc2OCC(F)(F)F)ccc1Cl [Example 52, N-(5-(4-chloro-3-methylphenyl)-6-(2,2,2-trifluoroethoxy)pyridin-3-yl)pyrimidine-5-carboxamide]		>45% @ 3 μM
21%	0%	O=C(Nc1cnc(OCC(F)(F)F)c(-c2ccc(Cl)c(F)c2)c1)c1cncnc1 [Example 53, N-(5-(4-chloro-3-fluorophenyl)-6-(2,2,2-trifluoroethoxy)pyridin-3-yl)pyrimidine-5-carboxamide]		>45% @ 3 μM
21%	10%	O=C(Nc1cnc(OCC(F)(F)F)c(-c2ccc(F)c(Cl)c2)c1)c1cncnc1 [Example 54, N-(5-(3-chloro-4-fluorophenyl)-6-(2,2,2-trifluoroethoxy)pyridin-3-yl)pyrimidine-5-carboxamide]		>45% @ 3 μM
35%	4%	O=C(Nc1cnc(OCC(F)(F)F)c(-c2ccc(Cl)cc2F)c1)c1cncnc1 [Example 55, N-(5-(4-chloro-2-fluorophenyl)-6-(2,2,2-trifluoroethoxy)pyridin-3-yl)pyrimidine-5-carboxamide]		>45% @ 3 μM
35%	0%	CCc1ccc(-c2cc(NC(=O)c3cncnc3)cnc2OCC(F)(F)F)cc1 [Example 56, N-(5-(4-ethylphenyl)-6-(2,2,2-trifluoroethoxy)pyridin-3-yl)pyrimidine-5-carboxamide]		>45% @ 3 μM
0%	-18%	Cc1cc(-c2cc(NC(=O)c3ccnc(O)c3)cnc2OCC(F)(F)F)ccc1Cl [Example 57, N-(5-(4-chloro-3-methylphenyl)-6-(2,2,2-trifluoroethoxy)pyridin-3-yl)-2-hydroxyisonicotinamide]		>45% @ 3 μM
17%	12%	Cc1cc(-c2cc(NC(=O)c3cncc(C#N)c3)cnc2OCC(F)(F)F)ccc1Cl [Example 61, N-(5-(4-chloro-3-methylphenyl)-6-(2,2,2-trifluoroethoxy)pyridin-3-yl)-5-cyanonicotinamide]		>45% @ 3 μM
